Data taken from patent publication US12570651B2, “Quinazoline-2,4-dione derivatives as PARP inhibitors” (Suzhou Four Health Pharmaceuticals Co., Ltd., priority 2019, dated 2026).
Blank lines part the entries; values can stand above or below the compound they belong to.

Tests used:
FaDu cells [1] = experiment: In vitro association kinetics, confocal microscopy; format: cell-based; conditions: 0.1 μM, 37° C.
Protocol: 40 000 FaDu cells were plated in 24-well plates (Cell imaging plates with glass bottom, Eppendorf), and incubated for 2 days at 37° C. After removal of the medium, 0.5 mL of 14F-FL at a final concentration of 0.1 μM was added and incubated for 2 min, 10 min, 20 min, 30 min, 45 min or 60 min at 37° C. The cells were then washed thrice with 1 ml cold PBS, fixed with 1 mL 4% paraformaldehyde (VWR) for 7-10 minutes and washed again with 1 mL PBS. Finally, 0.5 mL of 1 μg/mL DAPI-staining solution (DAPI ready-made solution, Sigma) was added for at least 10 min to stain the cell nuclei.
(§1) High resolution bright field and fluorescent images of the cells were acquired on a confocal microscope (LSM800, Zeiss) with excitation and emission wavelengths of 405/455 nm for DAPI and 488/525 for BodipyFL (standard conditions). Images were taken with a Plan Apochromat 63×/1.4 oil objective. Images were analyzed with the Software ZenLITE (Zeiss).

FaDu cells [2] = experiment: In vitro dissociation kinetics, confocal microscopy; format: cell-based
Protocol: 40 000 FaDu cells were plated in 24-well plates (Cell imaging plates with glass bottom, Eppendrof), and incubated for 2 days at 37° C. After removal of the medium, 0.5 mL of 14F-FL at a final concentration of 0.1 μM was added and incubated for 15 min at 37° C. The cells were then washed thrice with 1 ml cold PBS, and further incubated for 0 min, 30 min, 1 h, 2 h, 4 h or 24 h in medium at 37° C. After washing once with 1 mL cold PBS, the cells were fixed with 4% paraformaldehyde (VWR) and staining with DAPI as described above.
as §1

PARP-1 = molecular target: T1, PARP-1 (Homo sapiens, UniProt P09874); experiment: PARP/Apoptosis Universal Colorimetric Assay Kit (ELISA), PARP inhibitory activity; format: biochemical; conditions: for IC50, comparison in words: ELISA; for IC50: Elise test methods April 2020, 0.5 U/well PARP-HSA Enzyme, read-out: IC50-values for different PARP-inhibitors, as calculated by ELISA
T1 construct: purchased BioTechne—R&D Systems 4677-096-K
Protocol: The inhibitors (13F, 14F, 13I-FL, 13F-FL, 14F-FL, 13I and 14I) were kept at −20° C., dissolved in DMSO at 20 mg/mL.
The PARP/Apoptosis Universal Colorimetric Assay Kit 4677-096-K was purchased from BioTechne—R&D Systems. This ELISA kit detects biotinylated poly (ADP-ribose) deposited by PARP-1 onto immobilized histones in a 96-well format. The addition of Strep-HRP (biotin-binding protein) and a colorimetric HRP substrate yields relative absorbance that correlates with PARP-1 activity. The kit is used for in vitro screening of candidate PARP-1 inhibitors and determination of IC50 values.
The protocol recommended by the provider was followed. A 1/10 serial dilution of the inhibitors (ranging from 500 μM to 0.5 nM, 7 data points in triplicate) was added to the designated wells. Wells incubated with 0.5 U/well of PARP-HSA Enzyme without inhibitor were used as the 100% activity reference point. Data was expressed as % of Maximal Activity and plotted in function of the log of concentration (M)) using Graph Pad Prism 8. IC50 values were determined using a dose-response-inhibition equation.

FaDu cells [3] = experiment: In vitro cell binding study, confocal microscopy; format: cell-based
Protocol: (§2) 40 000 cells (FaDu, OE33, or Cal27) were plated in 24-well plates (Cell imaging plates with glass bottom, Eppendorf), and incubated for 2 days at 37° C. After removal of the medium, either 0.5 mL of media (Cond 1), 0.5 mL of 10 μM unlabeled PARPi (14F) (Cond 2) or 0.5 mL of 10 μM Olaparib (Cond 3) was added to the cells. After 30 minutes of incubation at 37° C., cells were washed with 1 mL of medium. Subsequently, 0.5 mL of 14F-FL at a final concentration of 0.1 μM was added and incubated for 15 min at 37° C. The cells were then washed thrice with 1 ml cold PBS, fixed with 1 mL 4% paraformaldehyde (VWR) for 7-10 minutes and washed again with 1 mL PBS. Finally, 0.5 mL of 1 μg/mL DAPI-staining solution (DAPI ready-made solution, Sigma) was added for at least 10 min to stain the cell nuclei.
as §1

OE33 cells [4] = experiment: In vitro cell binding study, confocal microscopy; format: cell-based
Protocol: as §2, §1

Cal27 cells [5] = experiment: In vitro cell binding study, confocal microscopy; format: cell-based
Protocol: as §2, §1

FaDu cells [6] = experiment: Cell binding by flow cytometry; format: cell-based
Protocol: (§3) 250 000 cells (FaDu, Cal27 or OE33) in suspension were incubated with 0.5 mL media, 0.5 mL 10 μM unlabeled 14F or 0.5 mL 10 μM Olaparib-analogue. After 30 min incubation at 37° C., the cells were washed once with 0.5 mL media and subsequently incubated with 0.5 mL 0.1 μM 14F-FL for 10 min at 37° C. The cells were then washed thrice with media (including 1×10 min incubation) and resuspended in FACS buffer (PBS+0.5% FBS+EDTA+N3). Finally, cells were analyzed on a flow cytometer (BD Celesta) in the GFP channel (ex 488 nm, em filter 510 nm). Data was analyzed via FlowJo software.

OE33 cells [7] = experiment: Cell binding by flow cytometry; format: cell-based
Protocol: as §3

Cal27 cells [8] = experiment: Cell binding by flow cytometry; format: cell-based
Protocol: as §3

[9] = 0.1 μM 15 min, washed, medium at 37° C.
[10] = 0.1 μM 14F-FL, 15 min at 37° C.
[11] = 0.1 μM 14F-FL, 10 min at 37° C.
[12] = 10 μM pretreatment 30 min, then 0.1 μM 14F-FL

T1 sequence (P09874 whole entry): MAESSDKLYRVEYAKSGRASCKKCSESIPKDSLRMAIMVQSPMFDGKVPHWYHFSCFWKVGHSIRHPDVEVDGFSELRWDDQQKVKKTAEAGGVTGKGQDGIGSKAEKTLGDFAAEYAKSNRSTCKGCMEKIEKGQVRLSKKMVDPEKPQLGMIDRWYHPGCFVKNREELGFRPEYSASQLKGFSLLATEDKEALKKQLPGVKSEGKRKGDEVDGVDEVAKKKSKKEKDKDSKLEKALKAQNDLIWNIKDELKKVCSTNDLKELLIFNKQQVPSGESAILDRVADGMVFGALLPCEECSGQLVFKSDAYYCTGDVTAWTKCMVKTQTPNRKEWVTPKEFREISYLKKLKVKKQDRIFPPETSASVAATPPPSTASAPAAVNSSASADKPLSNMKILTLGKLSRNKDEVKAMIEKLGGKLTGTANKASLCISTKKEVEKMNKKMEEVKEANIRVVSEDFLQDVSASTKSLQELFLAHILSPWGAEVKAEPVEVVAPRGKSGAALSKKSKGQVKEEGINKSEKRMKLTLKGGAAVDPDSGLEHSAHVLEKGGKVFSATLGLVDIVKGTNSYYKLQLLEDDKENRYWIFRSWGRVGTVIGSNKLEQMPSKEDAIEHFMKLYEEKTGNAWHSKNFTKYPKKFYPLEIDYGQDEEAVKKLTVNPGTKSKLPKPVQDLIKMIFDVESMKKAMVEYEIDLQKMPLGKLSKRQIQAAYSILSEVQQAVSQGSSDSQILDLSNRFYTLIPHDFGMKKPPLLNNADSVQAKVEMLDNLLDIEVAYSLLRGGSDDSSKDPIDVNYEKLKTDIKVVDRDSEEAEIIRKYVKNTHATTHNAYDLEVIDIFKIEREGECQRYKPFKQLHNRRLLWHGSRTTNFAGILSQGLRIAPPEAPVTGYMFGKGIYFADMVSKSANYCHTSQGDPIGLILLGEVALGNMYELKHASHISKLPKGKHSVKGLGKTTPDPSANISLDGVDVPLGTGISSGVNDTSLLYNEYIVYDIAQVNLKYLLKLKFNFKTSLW

SMILES: CC1=CC(C)=[N+]2C1=Cc1ccc(CCC(=O)N3CCN(C(=O)c4cc(Cn5c(=O)[nH]c(=O)c6ccccc65)ncc4F)CC3)n1[B-]2(F)F [Compound 14F-FL, 1-((4-(4-(3-(5,5-difluoro-7,9-dimethyl-5H-5I4,6I4-dipyrrolo[1,2-c:2′,1′-f][1,3,2]diazaborinin-3-yl)propanoyl)piperazine-1-carbonyl)-5-fluoropyridin-2-yl)methyl)quinazoline-2,4(1H,3H)-dione]
incubation time to maximal binding (FaDu cells [1]): ≤ 10 min | retention on target after binding (FaDu cells [2]; [9]): remains bound to its target for a few hours | time from which the signal in the nucleus gradually decreases (FaDu cells [2]; [9]): 2 to 4 h | signal in the nuclei after 24 h (FaDu cells [2]; 24 h in medium at 37° C. after washing): some signal can still be observed | IC50, comparison in words (PARP-1): Best IC50-values | IC50 (PARP-1): < 50 nM | fluorescent signal in the nuclei (FaDu cells [3]; [10]): intense green fluorescent signal | fluorescent signal in the nuclei (OE33 cells [4]; [10]): intense green fluorescent signal | fluorescent signal in the nuclei (Cal27 cells [5]; [10]): intense green fluorescent signal | cell binding, flow cytometry (FaDu cells [6]; [11]): significant binding | cell binding, flow cytometry (OE33 cells [7]; [11]): significant binding | cell binding, flow cytometry (Cal27 cells [8]; [11]): significant binding

SMILES: CC1=CC(C)=[N+]2C1Cc1ccc(CCC(=O)N3CCN(C(=O)c4cc(Cn5c(=O)[nH]c(=O)c6cccnc65)ccc4F)CC3)n1[B-]2(F)F (stereo not shown) [Compound 13F-FL, 1-(3-(4-(3-(5,5-difluoro-7,9-dimethyl-5H-5I4,6I4-dipyrrolo[1,2-c:2′,1′-f][1,3,2]diazaborinin-3-yl)propanoyl)piperazine-1-carbonyl)-4-fluorobenzyl)pyrido[2,3-d]pyrimidine-2,4(1H,3H)-dione]
IC50 (PARP-1): 50 to 500 nM

SMILES: O=C(c1cc(Cn2c(=O)[nH]c(=O)c3cccnc32)ccc1F)N1CCN(C(=O)C2CCCC2)CC1 [Compound 13F, 1-(3-(4-(cyclopentanecarbonyl)piperazine-1-carbonyl)-4-fluorobenzyl)pyrido[2,3-d]pyrimidine-2,4(1H,3H)-dione]
IC50 (PARP-1): 50 to 500 nM

SMILES: O=C(c1cc(Cn2c(=O)[nH]c(=O)c3cccnc32)ccc1I)N1CCN(C(=O)C2CCCC2)CC1 [Compound 13I, 1-(3-(4-(cyclopentanecarbonyl)piperazine-1-carbonyl)-4-iodobenzyl) pyrido [2,3-d]pyrimidine-2,4(1H,3H)-dione]
IC50 (PARP-1): > 500 nM

SMILES: CC1=CC(C)=[N+]2C1Cc1ccc(CCC(=O)N3CCN(C(=O)c4cc(Cn5c(=O)[nH]c(=O)c6cccnc65)ccc4I)CC3)n1[B-]2(F)F (stereo not shown) [Compound 13I-FL, 1-(3-(4-(3-(5,5-difluoro-7,9-dimethyl-5H-5I4,6I4-dipyrrolo[1,2-c:2′,1′-f][1,3,2]diazaborinin-3-yl)propanoyl)piperazine-1-carbonyl)-4-iodobenzyl)pyrido[2,3-d]pyrimidine-2,4(1H,3H)-dione]
IC50 (PARP-1): > 500 nM

The next lines start with results.

IC50 (PARP-1): > 500 nM
SMILES: O=C(c1cc(Cn2c(=O)[nH]c(=O)c3ccccc32)ncc1I)N1CCN(C(=O)C2CCCC2)CC1 [Compound 14I, 1-((4-(4-(cyclopentanecarbonyl)piperazine-1-carbonyl)-5-iodopyridin-2-yl)methyl)quinazoline-2,4(1H,3H)-dione]

IC50, comparison in words (PARP-1): Best IC50-values | IC50 (PARP-1): < 50 nM
SMILES: O=C(c1cc(Cn2c(=O)[nH]c(=O)c3ccccc32)ncc1F)N1CCN(C(=O)C2CCCC2)CC1 [Compound 14F, 1-((4-(4-(cyclopentanecarbonyl)piperazine-1-carbonyl)-5-fluoropyridin-2-yl)methyl)quinazoline-2,4(1H,3H)-dione]
14F-FL signal after pretreatment with excess of unlabeled analogue (FaDu cells [3]; [12]): no green fluorescent signal | 14F-FL signal after pretreatment with excess of unlabeled analogue (OE33 cells [4]; [12]): no green fluorescent signal | 14F-FL signal after pretreatment with excess of unlabeled analogue (Cal27 cells [5]; [12]): no green fluorescent signal | 14F-FL binding after pretreatment with excess unlabeled compound, flow cytometry (FaDu cells [6]; [12]): decreased the binding | 14F-FL binding after pretreatment with excess unlabeled compound, flow cytometry (OE33 cells [7]; [12]): decreased the binding | 14F-FL binding after pretreatment with excess unlabeled compound, flow cytometry (Cal27 cells [8]; [12]): decreased the binding
